Literature values, collected in patent US20230354819A1 (priority 2020, published 2023).
Bridge positions count the residues as written; N and C are the ends. Square brackets hold non-standard residues; d marks the D form. Peptide text beside a SMILES is read from it. * marks the point of attachment. ξ: configuration not given here. Pentadecanoyl(3ξ-OH,15-Gua) = N=C(N)NCCCCCCCCCCCCC(O)CC(=O)*; d(aThr) = C[C@@H](O)[C@@H](N)C(=O)O

System: cultured parsley cells
Conditions: WO 2006/016558

| SMILES | induction of resistance reactions |
| --- | --- |
| CC(C)[C@@H]1NC(=O)[C@@H](C(C)C)NC(=O)[C@@H](NC(=O)CC(O)CCCCCCCCCCCCN=C(N)N)C(C)OC(=O)[C@@H](C)NC(=O)[C@@H](CCC(N)=O)NC(=O)[C@@H]([C@H](C)O)NC1=O (stereo in doubt) [fusaricidin B] | induce resistance reactions |
| CC(C)[C@@H]1NC(=O)[C@@H](C(C)C)NC(=O)[C@@H](NC(=O)CC(O)CCCCCCCCCCCCN=C(N)N)[C@@H](C)OC(=O)[C@@H](C)NC(=O)[C@@H](CC(N)=O)NC(=O)[C@@H]([C@@H](C)O)NC1=O (some centres unmarked) [fusaricidin A] ({Pentadecanoyl(3ξ-OH,15-Gua)}-T[dV]V[d(aThr)][dN][dA]; ester 1-C) | induce resistance reactions |
